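Five concentrations, 48 hours, 96-well plates. The concentration for 50% growth inhibition is given as GI50. TGI: total growth inhibition.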 Where only a bound is given, the exact number is not on record here.

Test in all cases: NCI tumour cell line growth inhibition, 48 h
In test [1] the test system is ACHN renal.
Test [2] deals with K-562 leukemia.
The subject of test [3] is LOX IMVI melanoma.
Test [4] relates to M14 melanoma.
In test [5] the test system is MOLT-4 leukemia.
In test [6] the test system is OVCAR-5 ovarian.
Test [7] relates to SF-268 CNS.
The subject of test [8] is SNB-19 CNS.
For test [9], the system named is SW-620 colon.
Test [10] concerns COLO 205 colon.

Regarding `Fc1ccc(Nc2ccnc(N3CCN(c4ccnc5cc(Cl)ccc45)CC3)n2)cc1`, the GI50 in [1] is 2.5 µM; in [2], 2.18 µM; in test [3], 1.82 µM; in test [4], 1.89 µM; in test [5], 2.76 µM; in test [6], 3.82 µM. The GI50 in test [7] is 3.67 µM; in test [8], 3.99 µM; in [9] it was 2.92 µM. Also, the TGI is over 100 µM in test [1]; 6.62 µM in [2]; 3.62 µM in test [3]; 4.25 µM in test [4]; 8.37 µM in [5]; over 100 µM in test [6]. The values for the TGI in test [7], in test [8] and in test [9] were 40.3 µM, over 100 µM and 13.9 µM, respectively.
Take `CC1=NN(c2ccccc2)C(=O)C1N=Nc1ccc(Br)cc1C` (stereo not given): the TGI in test [1], in test [10], in [2], in test [4], in test [5] and in [6] was over 100 µM in each case. The TGI in test [7], in test [8] and in test [9] was over 100 µM each time.
On to `Cc1cc(S(=O)(=O)Nc2nc3ccccc3s2)c(SCc2ccccc2)cc1Cl`, for which the GI50 is 14 µM in [1]; 30 µM in [10]; 15.6 µM in test [2]; 12.1 µM in test [3]; 19.2 µM in test [4]; 18.8 µM in test [6]. In addition, the GI50 is 27.1 µM in test [7], 28.2 µM in test [8] and 18.8 µM in [9]. In addition, the TGI in test [1] is 27.8 µM; in test [10], 68.4 µM; in test [2], over 100 µM; in [3] it was 24.5 µM; in [4] it was 36.6 µM; in [6], 36.7 µM. The TGI was 73.9 µM in test [7], over 100 µM in [8] and 37.6 µM in [9].
For the compound `O=C(C#Cc1ccccc1)Nc1ccccc1CC(c1c[nH]c2ccccc12)c1c[nH]c2ccccc12`, the TGI in [10] was 44.2 µM; in [2], 36.5 µM; in [3], 43.6 µM; in test [4] it was 39.6 µM; in test [5] it was 34.2 µM; in test [7], over 100 µM. Further, the results for the TGI in [8] and in test [9] were over 100 µM and 27.4 µM, respectively.
For the compound `C/C(COc1ccccc1)=N\NC(N)=S`, the TGI in test [1], in [10], in [2], in test [3], in [4] and in [5] was over 100 µM in each case. Moreover, the TGI in [6], in [7] and in [9] was over 100 µM in each case.
In the case of `CCCCCCCN(CCCCCCC)C(=N)c1ccc(OC)c2ccccc12`, the GI50 was 1.32 µM in [1]; 1.01 µM in [10]; 1.53 µM in test [4]; 1.29 µM in [6]; 1.49 µM in test [7]; 1.38 µM in [8]. Moreover, the GI50 in test [9] is 0.825 µM. Moreover, the TGI in [1] came out at 2.81 µM; in [10] it was 2.35 µM; in test [4], 2.95 µM; in test [6], 2.88 µM; in test [7], 3.16 µM; in [8], 2.93 µM. The compound further displayed a TGI in test [9] of 2.24 µM.
As for `COc1ccc(C2[C@@H](Cl)C(=O)N2c2ccc(OC)cc2)cc1` (stereo not given in full), the TGI in test [1], in [10], in test [2], in [5], in [6] and in test [7] was over 100 µM throughout. The TGI in [8] and in test [9] was over 100 µM in each case.
As to `Cc1cc(C2CC(O)C(CO)O2)c(Br)cc1Br` (stereo not given), the GI50 in [1] was over 100 µM; in [10], over 100 µM; in test [2], over 100 µM; in test [3], 80.2 µM; in test [4], over 100 µM; in test [6] it was over 100 µM. For the same compound, the GI50 in [7], in [8] and in test [9] was over 100 µM each time. Further, the TGI in test [1], in test [10], in test [2], in [3], in [4] and in test [6] was over 100 µM each time. Besides, the TGI in test [7], in test [8] and in test [9] was over 100 µM each time.
Turning to `Nc1nc(N)c2c(n1)NC(c1ccc(Cl)cc1)C1CCc3ccccc3C1=N2` (stereo not given), the GI50 in test [1] is 4.72 µM; in test [10], 2.78 µM; in test [3], 3.53 µM; in test [4], 10.4 µM; in [6] it was 14.9 µM; in test [7] it was 12.4 µM. Moreover, the GI50 in test [8] is 16.8 µM; in [9], 8.23 µM. The TGI came to 18.3 µM in [1]; 9.05 µM in test [10]; 16.2 µM in [3]; 22.1 µM in test [4]; 28.1 µM in test [6]; 26.9 µM in test [7]. The TGI in test [8] stood at 30.4 µM; in [9], 22.6 µM.
Regarding `N#Cc1cc([N+](=O)[O-])ccc1NC(=O)C(=O)Nn1c(=S)[nH]c2ccccc2c1=O`, the TGI in test [10], in [2], in test [3], in test [4], in [6] and in test [7] was over 100 µM each time. Besides, the TGI in test [8] and in [9] was over 100 µM each time.
As for `O=C1C2=C(c3ccccc31)C(c1ccc([N+](=O)[O-])cc1)NC(=S)N2` (stereo not given), the TGI in [1], in [10], in test [2], in [4], in test [5] and in test [6] was over 100 µM throughout. In addition, the TGI in test [7], in [8] and in [9] was over 100 µM in each case.
Regarding `O=S1(=O)CC#CC[C@@H](CO)[C@@H](CO)CC#CC1`, the TGI in test [1], in [2], in test [3], in [4], in [5] and in test [6] was over 100 µM throughout. The compound also displayed a TGI in [9] of over 100 µM.
Take `O=c1[nH]c(C2CCCCC2)nc2ccc(Cl)cc12`: the TGI in [1], in [10], in test [2], in [5], in test [6] and in test [7] was over 100 µM throughout. The TGI in test [8] and in [9] was over 100 µM each time.
Regarding `c1ccc2cc(Cn3c(-c4cccc5ccccc45)[n+](Cc4ccc5ccccc5c4)c4c5ccccc5c5ccccc5c43)ccc2c1`, the GI50 is 0.224 µM in test [2], 0.385 µM in test [5], 0.378 µM in [6] and 0.318 µM in test [8]. Besides, the TGI in [2] is over 100 µM; in test [5], 2.09 µM; in test [6], 1.68 µM; in test [8], 1.62 µM.
Turning to `CC(C)Cc1cc(-c2cccn2C)c(C#N)c(=O)[nH]1`, the GI50 in test [1] was over 100 µM; in [10], over 100 µM; in test [2], over 100 µM; in test [3] it was over 100 µM; in [5], 22.5 µM; in [6], over 100 µM. Besides, the GI50 in test [7], in [8] and in test [9] was over 100 µM throughout. Also, the TGI in test [1], in test [10], in test [2], in test [3], in test [5] and in test [6] was over 100 µM each time. The TGI in test [7], in [8] and in test [9] was over 100 µM throughout.
Turning to `Cc1c(-c2c(F)cc(C(N)=O)c3[nH]c4c(c23)CC[C@H](C(C)(C)O)C4)cccc1-n1c(=O)c2cccc(F)c2n(C)c1=O`, the GI50 in test [1] is 2.8 µM; in test [2] it was 3.61 µM; in test [3], 3.13 µM; in test [4], 3.69 µM; in test [5] it was 1.77 µM; in test [6] it was 2.83 µM. Moreover, the GI50 in test [7] was 4.91 µM; in [8], 7.22 µM; in [9], 2.44 µM. Further, the TGI is over 100 µM in test [1]; over 100 µM in [2]; over 100 µM in test [3]; 66.1 µM in [4]; 6.58 µM in test [5]; over 100 µM in test [6]. Further, the TGI in test [7], in [8] and in [9] was over 100 µM each time.
`[N-]=[N+]=NCCCn1c2c(c3ccccc3c1=O)C(=O)c1cc3c(cc1-2)OCO3`: the GI50 in test [1] is 24.1 µM; in test [2], 25.9 µM; in [3], 44.9 µM; in [4] it was 79.7 µM; in test [5] it was 19.6 µM; in test [6], over 100 µM. Further, the values for the GI50 in test [7] and in [9] were 81.7 µM and over 100 µM, respectively. Moreover, the TGI in [1], in test [2], in [3], in test [4], in test [5] and in test [6] was over 100 µM throughout. Also, the TGI in [7] and in test [9] was over 100 µM in each case.
As for `COc1ccc(N2CCN(c3nc(-c4ccccn4)nc4sc5c(c34)CCCCCC5)CC2)cc1`, the GI50 in test [1] is 5.09 µM; in test [10] it was 5.61 µM; in test [2], 4.15 µM; in [3] it was 6.24 µM; in test [4] it was 5.4 µM; in [5], 3.26 µM. Also, the GI50 in test [6] was 51.7 µM; in test [7], over 100 µM; in test [9] it was 5.08 µM. For the same compound, the TGI in [1], in [10], in test [2], in test [3], in test [4] and in [5] was over 100 µM each time. In addition, the TGI in test [6], in test [7] and in [9] was over 100 µM each time.
For the compound `Cc1ccc(C2=C(c3ccccc3)C(O)(c3ccccc3)C(c3ccccc3)=C2c2ccc(C)cc2)cc1`, the TGI in [1], in test [2], in test [4], in test [6], in [7] and in [8] was over 100 µM throughout. The TGI in [9] was over 100 µM.
`Nc1ncnc2c1ncn2Cc1ccc(CCl)cc1`: the GI50 in [1] is 19.4 µM; in test [10], 14.2 µM; in test [2] it was 14.9 µM; in test [3], 23.5 µM; in [4], 25.2 µM; in test [6], 18.8 µM. The figures for the GI50 in test [7], in [8] and in [9] were 21.8 µM, 16 µM and 12.8 µM, respectively. Besides, the TGI in [1] was 34.8 µM; in [10] it was 31.4 µM; in [2] it was over 100 µM; in test [3], 51.7 µM; in test [4], 60.5 µM; in [6], 35.2 µM. Also, the values for the TGI in test [7], in [8] and in [9] were 57.9 µM, 37.8 µM and 30.2 µM, respectively.
For `CC(C)c1cccc(C(C)C)c1NC(=O)/C(Cc1nc2ccc(Cl)cc2[nH]c1=O)=N\NC(=O)C[N+](C)(C)C`, the TGI in [1], in test [10], in test [2], in [4], in [5] and in [6] was over 100 µM each time. The TGI in test [7], in test [8] and in test [9] was over 100 µM throughout.
In the case of `Cc1ccccc1C1SCc2nc3ccccc3n21` (stereo not given), the TGI in test [1], in test [10], in test [2], in test [6], in test [7] and in [8] was over 100 µM each time.
In the case of `O=C1/C(=C/c2ccc(C(=O)O)cc2)CNC/C1=C\c1ccc(C(=O)O)cc1`, the TGI in test [1], in test [10], in [2], in test [4], in [5] and in test [6] was over 100 µM throughout. Also, the TGI in [7] is over 100 µM.

For the origin of these results see PubChem BioAssay (NCI).
